In patent US10894807B2 (Siemens Medical Solutions USA, Inc., priority 2011, dated 2021):

Target: human PSMA (Homo sapiens (Human), UniProt Q04609)
Assay: Enzymatic assay for in vitro evaluation of PSMA inhibitors (fluorescent assay of PSMA activity, NAAG substrate, OPA detection of glutamate)
Format: biochemical
Settings: for PSMA Blkg % (10 μM): compound at 10 μM

Sequence of human PSMA (Q04609 whole entry): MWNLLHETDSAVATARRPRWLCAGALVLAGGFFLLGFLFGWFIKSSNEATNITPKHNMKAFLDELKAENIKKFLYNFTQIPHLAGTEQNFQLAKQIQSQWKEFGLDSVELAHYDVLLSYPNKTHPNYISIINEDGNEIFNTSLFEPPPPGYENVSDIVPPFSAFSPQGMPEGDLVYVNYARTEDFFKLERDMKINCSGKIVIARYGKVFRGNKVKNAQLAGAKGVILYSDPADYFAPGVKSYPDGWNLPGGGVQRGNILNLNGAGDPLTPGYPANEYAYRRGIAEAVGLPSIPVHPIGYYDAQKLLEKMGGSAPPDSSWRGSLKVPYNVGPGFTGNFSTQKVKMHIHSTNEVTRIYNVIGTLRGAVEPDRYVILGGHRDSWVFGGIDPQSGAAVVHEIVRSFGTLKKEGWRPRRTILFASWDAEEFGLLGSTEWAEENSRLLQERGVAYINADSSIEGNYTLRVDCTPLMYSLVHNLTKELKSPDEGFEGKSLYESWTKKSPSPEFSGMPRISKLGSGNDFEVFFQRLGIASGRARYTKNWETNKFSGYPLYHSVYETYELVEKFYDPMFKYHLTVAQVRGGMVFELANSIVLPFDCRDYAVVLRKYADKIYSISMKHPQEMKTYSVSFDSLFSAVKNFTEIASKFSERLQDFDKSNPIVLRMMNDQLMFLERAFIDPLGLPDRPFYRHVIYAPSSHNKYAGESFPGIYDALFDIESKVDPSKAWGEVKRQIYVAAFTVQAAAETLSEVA

| Compound | PSMA Blkg % (10 μM) [%] | Ki [nM] |
| --- | --- | --- |
| O=C(O)CC[C@@H](C(=O)O)N1C(=O)C(=O)N([C@@H](CCCCNC(=O)OCc2ccccc2)C(=O)O)C1=O [P072, (S)-2-(3-((S)-5-(Benzyloxycarbonylamino)-1-carboxypentyl)-2,4,5-trioxoimidazolidin-1-yl)pentanedioic Acid] | 39 |  |
| [N-]=[N+]=NCCCCC(=O)NCCCC[C@@H](C(=O)O)N1C(=O)CC(=O)N([C@@H](CCC(=O)O)C(=O)O)C1=O [P073, (S)-2-(3-((S)-5-(5-Azidopentanamido)-1-carboxypentyl)-2,4,6-trioxotetrahydropyrimidin-1(2H)-yl)pentanedioic Acid] | 2 |  |
| O=C(O)CC[C@@H](C(=O)O)N1C(=O)CC(=O)N([C@@H](CCCCNC(=O)Cn2cc(CCCF)nn2)C(=O)O)C1=O [P074, (S)-2-(3-((S)-1-Carboxy-5-(2-(4-(3-fluoropropyl)-1H-1,2,3-triazol-1-yl)acetamido)pentyl)-2,4,6-trioxotetrahydropyrimidin-1(2H)-yl)pentanedioic Acid] | 10 |  |
| O=C(O)CC[C@H](NC(=O)N1CCC[C@H]1C(=O)O)C(=O)O [P075, (S)-2-((S)-2-Carboxypyrrolidine-1-carboxamido)pentanedioic Acid] | 32 |  |
| O=C(O)CC[C@@H](C(=O)O)N1C(=O)CC(=O)N([C@@H](CCCCNC(=O)CCCCn2cc(CCCF)nn2)C(=O)O)C1=O [P076, (S)-2-(3-((S)-1-Carboxy-5-(5-(4-(3-fluoropropyl)-1H-1,2,3-triazol-1-yl)pentanamido)pentyl)-2,4,6-trioxotetrahydropyrimidin-1(2H)-yl)pentanedioic Acid] | 14 |  |
| CC1(C)C(=O)N([C@@H](CCCCNC(=O)OCc2ccccc2)C(=O)O)C(=O)N([C@@H](CCC(=O)O)C(=O)O)C1=O [P077, (S)-2-(3-((S)-5-(Benzyloxycarbonylamino)-1-carboxypentyl)-5,5-dimethyl-2,4,6-trioxotetrahydropyrimidin-1(2H)-yl)pentanedioic Acid] | 28 |  |
| CCC1C(=O)N([C@@H](CCCCNC(=O)OCc2ccccc2)C(=O)O)C(=O)N([C@@H](CCC(=O)O)C(=O)O)C1=O (stereo partly drawn) [P078, (2S)-2-(3-((S)-5-(Benzyloxycarbonylamino)-1-carboxypentyl)-5-ethyl-2,4,6-trioxotetrahydropyrimidin-1(2H)-yl)pentanedioic Acid] |  | > 312 |
| CCC1(CC)C(=O)N([C@@H](CCCCNC(=O)OCc2ccccc2)C(=O)O)C(=O)N([C@@H](CCC(=O)O)C(=O)O)C1=O [P079, (S)-2-(3-((S)-5-(Benzyloxycarbonylamino)-1-carboxypentyl)-5,5-diethyl-2,4,6-trioxotetrahydropyrimidin-1(2H)-yl)pentanedioic Acid] |  | 313 |
| CN(C(=O)N[C@@H](CCC(=O)O)C(=O)O)[C@@H](CCCCNC(=O)CCCCCn1cc(CCCF)nn1)C(=O)O [P080, (S)-2-(3-((S)-1-Carboxy-5-(6-(4-(3-fluoropropyl)-1H-1,2,3-triazol-1-yl)-hexamido)pentyl)-3-methylureido)pentanedioic Acid] | 90 |  |
| O=C(O)CCC(NC(=O)N1CC(NC(=O)CCCCn2cc(CCCF)nn2)C[C@H]1C(=O)O)C(=O)O (stereo partly drawn) [P081, 2-((2S)-2-Carboxy-4-(5-(4-(3-fluoropropyl)-1H-1,2,3-triazol-1-yl)pentanamido)pyrrolidine-1-carboxamido)pentanedioic Acid] | 25 |  |
| C[C@H](NC(=O)N[C@@H](CCC(=O)O)C(=O)O)C(=O)NCCF [P082, (S)-2-(3-((S)-1-((2-Fluoroethyl)amino)-1-oxopropan-2-yl)ureido)pentanedioic Acid] | 4 |  |
| CN(CCCC[C@H](NC(=O)N[C@@H](CCC(=O)O)C(=O)O)C(=O)O)C(=O)OCc1ccccc1 [P083, (9S,13S)-4-Methyl-3,11-dioxo-1-phenyl-2-oxa-4,10,12-triazapentadecane-9,13,15-tricarboxylic Acid] | 100 |  |
| O=C(O)CC[C@@H](C(=O)O)n1c(=O)[nH]c(=O)n([C@@H](CCCCNC(=O)OCc2ccccc2)C(=O)O)c1=O [P084, (S)-2-(3-((S)-5-(Benzyloxycarbonylamino)-1-carboxypentyl)-2,4,6-trioxo-1,3,5-triazinan-1-yl)pentanedioic Acid] | 19 |  |
| Cn1c(=O)n([C@@H](CCCCNC(=O)OCc2ccccc2)C(=O)O)c(=O)n([C@@H](CCC(=O)O)C(=O)O)c1=O [P085, (S)-2-(3-((S)-5-(Benzyloxycarbonylamino)-1-carboxypentyl)-5-methyl-2,4,6-trioxo-1,3,5-triazinan-1-yl)pentanedioic Acid] | 0 |  |
| CN1C(=O)N(C(CCC(=O)O)C(=O)O)C(=O)[C@@H]1CCCCNC(=O)c1ccc(N=[N+]=[N-])cc1 (stereo partly drawn) [P086, 2-((S)-4-(4-(4-Azidobenzamido)butyl)-3-methyl-2,5-dioxoimidazolidin-1-yl)-pentanedioic Acid] | 25 |  |
| Cc1nc(N[C@@H](CCC(=O)O)C(=O)O)sc1C(=O)O [P087, (S)-2-((5-Carboxy-4-methylthiazol-2-yl)amino)pentanedioic Acid] | 3 |  |

| Compound | PSMA Blkg % (10 μM) [%] | Ki [nM] |
| --- | --- | --- |
| O=NC1C(=O)N([C@@H](CCCCNC(=O)OCc2ccccc2)C(=O)O)C(=O)N([C@@H](CCC(=O)O)C(=O)O)C1=O (stereo partly drawn) [P088, (2S)-2-(3-((S)-5-(Benzyloxycarbonylamino)-1-carboxypentyl)-5-nitroso-2,4,6-trioxotetrahydropyrimidin-1(2H)-yl)pentanedioic Acid] |  | > 407 |
| O=C(O)CC[C@@H](C(=O)O)N1C(=O)C([N+](=O)[O-])C(=O)N([C@@H](CCCCNC(=O)OCc2ccc([N+](=O)[O-])cc2)C(=O)O)C1=O (stereo partly drawn) [P089, (2S)-2-(3-((S)-1-Carboxy-5-((((4-nitrobenzyl)oxy)carbonyl)amino)pentyl)-5-nitro-2,4,6-trioxotetrahydropyrimidin-1(2H)-yl)pentanedioic Acid] |  | > 407 |
| O=C(O)CC[C@H](NC(=O)CN(O)C(=O)CCCc1ccc(-n2cc(CCCF)nn2)cc1)C(=O)O [P090, (S)-2-(2-(4-(4-(4-(3-Fluoropropyl)-1H-1,2,3-triazol-1-yl)phenyl)-N-hydroxybutanamido)acetamido)pentanedioic Acid] | 85 | 313 |
| NC1C(=O)N([C@@H](CCCCNC(=O)OCc2ccccc2)C(=O)O)C(=O)N([C@@H](CCC(=O)O)C(=O)O)C1=O (stereo partly drawn) [P091, (2S)-2-(5-Amino-3-((S)-5-(benzyloxycarbonylamino)-1-carboxypentyl)-2,4,6-trioxotetrahydropyrimidin-1(2H)-yl)pentanedioic Acid] | 23 |  |
| O=C(O)CC[C@H](NC(=O)N(O)[C@@H](CCCCNC(=O)c1ccc(-n2cc(CCCF)nn2)cc1)C(=O)O)C(=O)O [P092, (S)-2-(3-((S)-1-Carboxy-5-(4-(4-(3-fluoropropyl)-1H-1,2,3-triazol-1-yl)benzamido)pentyl)-3-hydroxyureido)pentanedioic Acid] | 99 | 31 |
| O=C(O)CC[C@H](NC(=O)CN(O)C(=O)CCCCn1cc(CCCF)nn1)C(=O)O [P093, (S)-2-(2-(5-(4-(3-Fluoropropyl)-1H-1,2,3-triazol-1-yl)-N-hydroxypentanamido)-acetamido)pentanedioic Acid] | 16 |  |
| O=C(O)CC[C@@H](C(=O)O)N1C(=O)CC(=O)N([C@@H](CCCCNC(=O)CCCc2ccc(-n3cc(CCCF)nn3)cc2)C(=O)O)C1=O [P094, (S)-2-(3-((S)-1-Carboxy-5-(4-(4-(4-(3-fluoropropyl)-1H-1,2,3-triazol-1-yl)phenyl)butanamido)pentyl)-2,4,6-trioxotetrahydropyrimidin-(2H)-yl)pentanedioic Acid] | 7 |  |
| O=C(O)CC[C@@H](C(=O)O)N1C(=O)CC(=O)N(Cc2ccccc2)C1=O [P095, (S)-2-(3-Benzyl-2,4,6-trioxotetrahydropyrimidin-1(2H)-yl)pentanedioic Acid] | 4 |  |
| O=C(O)CC[C@@H](C(=O)O)N1C(=O)/C(=C(/O)Cn2cc(CCCF)nn2)C(=O)N(Cc2ccccc2)C1=O [P096, (S,E)-2-(3-Benzyl-5-(2-(4-(3-fluoropropyl)-1H-1,2,3-triazol-1-yl)-1-hydroxyethylidene)-2,4,6-trioxotetrahydropyrimidin-1(2H)-yl)pentanedioic Acid] | 3 |  |
| O=C(O)CCC(NC(=O)C(=O)N[C@@H](CCC(=O)O)C(=O)O)C(=O)O (stereo partly drawn) [P098, (2′S)-2,2′-(Oxalylbis(azanediyl))dipentanedioic Acid] | 23 |  |
| O=C(O)CCC(NS(=O)(=O)N[C@@H](CCC(=O)O)C(=O)O)C(=O)O (stereo partly drawn) [P099, (2S)-2,2′-(Sulfonylbis(azanediyl))dipentanedioic Acid] | 0 |  |
| O=C(O)CC[C@H](NC(=O)NNC(=O)CCCc1ccc(-n2cc(CCCF)nn2)cc1)C(=O)O [P100, (S)-2-(2-(4-(4-(4-(3-Fluoropropyl)-1H-1,2,3-triazol-1-yl)phenyl)butanoyl)-hydrazinecarboxamido)pentanedioic Acid] | 3 |  |
| O=C(O)CC[C@@H](C(=O)O)N1C(=O)/C(=C(\O)CCCc2ccc(-n3cc(CCCF)nn3)cc2)C(=O)N(Cc2ccccc2)C1=O [P101, (S,Z)-2-(3-Benzyl-5-(4-(4-(4-(3-fluoropropyl)-1H-1,2,3-triazol-1-yl)phenyl)-1-hydroxybutylidene)-2,4,6-trioxotetrahydropyrimidin-1(2H)-yl)pentanedioic Acid] | 0 |  |
| O=C(O)CC[C@@H](C(=O)O)N1C(=O)/C(=C(\O)CCCCn2cc(CCCF)nn2)C(=O)N(Cc2ccccc2)C1=O [P102, (S,Z)-2-(3-Benzyl-5-(5-(4-(3-fluoropropyl)-1H-1,2,3-triazol-1-yl)-1-hydroxypentylidene)-2,4,6-trioxotetrahydropyrimidin-1(2H)-yl)pentanedioic Acid] | 0 |  |
| CN(C(=O)N[C@@H](CCC(=O)O)C(=O)O)[C@@H](CCCCNC(=O)CCCc1ccc(-n2cc(CCCF)nn2)cc1)C(=O)O [P103] | 91 | 235 |
